# Laboratory results taken from patent US6867305B2, “Synthesis of epothilones, intermediates thereto and analogues thereof” (Sloan-Kettering Institute for Cancer Research, priority 1996, dated 2005).
# pIC50: −log10 of the molar value. Several values for one entry are separate records, joined by “and”; a condition that tells them apart may be missing. Identical values can stand only once. Entries after “also recorded” stand apart in the source; their conditions may differ.
# Columns and labels:
# [1] = system: CCRF-CEM/Taxol (paclitaxel-resistant subline); assay: Tumor cell growth inhibition in vitro (XTT, 72 h); assay type: cell-based, human
# Method: (§1) The fresh medium containing each drug was replenished every 7-14 days. […] In each case ,the drug-exposed cells were resuspended in fresh media for a minimum of 4 days before the experiments for the cell-growth inhibition was carried out.
# (§2) The cells were cultured at an initial density of 2-5×10^4 cells per ml. They were maintained in a 5% CO2-humidified atmosphere at 37° C. in RPMI mediun 1640 (GIBCO/BRL) containing penicillin (100 units/ml), streptomycin (100 μg/ml) (GIBCO/BRL), and 5% heat-inactivated fetal bovine serum. For solid tumor cells growing in a monolayer (such as MCF-7/Adr), cytotoxicitiy of the drug was determined in 96-well microtiter plates by using the sulforhodamine B method as described by Skehan et al (23) for measuring the cellular protein content. For cells that were grown in suspension (such as CCRF-CEM and its sublines), cytotoxicitiy was measured by using the 2,-3-bis(2-methoxy-4-nitro-5-sulfophenyl)-5carboxanilide)-2H terazodium hydroxide (XTT)-microculture tetrazonium method (24) in duplicate in 96-well microtiter plates. For both methods, the absorbance of each well was measured with a microplate reader (EL-340, Bio-Tek, Burlington, Vt.). Each run entailed six or seven concentrations of the tested drugs. Dose-effect relationship data were analyzed with the median-effect plot (25) by using a previously described computer program (26).
# [2] = system: CCRF-CEM/VBL100 (vinblastine-resistant subline); assay: Tumor cell growth inhibition in vitro (XTT, 72 h); assay type: cell-based, human
# Method: as §1, §2
# [3] = system: CCRF-CEM/VM1 (teniposide-resistant subline); assay: Tumor cell growth inhibition in vitro (XTT, 72 h); assay type: cell-based, human
# Method: as §1, §2
# [4] = system: DC-3F/ADII; assay: Tumor cell growth inhibition in vitro; assay type: cell-based, hamster; settings: DC-3F/ADII
# Method: as §1, §2
# [5] = system: MCF-7/Adr; assay: Tumor cell growth inhibition in vitro; assay type: cell-based, human; settings: for pIC50: MCF-7/Adr
# Summary of the method: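 Cells seeded at 2-5×10^4 cells/ml were exposed to six or seven drug concentrations. Growth was read by sulforhodamine B protein staining for monolayer cells such as MCF-7/Adr, and by XTT in duplicate for suspension cells. Dose-effect data were analysed by median-effect plot.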
# [6] = system: CCRF-CEM leukemia xenograft
# Method: Nude mice bearing well established CCRF-CEM tumor xenografts (average tumor size about 400 mm^3) were treated with 30 mg/kg of dEpoB or with 6 mg/kg of 15-azaEpoB, 6 hr-i.v. infusion Q2D×6 as shown in FIG. 37.
# Depending on the tumor type, treatment started on day 10 to day 21 when subcutaneous tumor size reached 35-200 mm^3, except otherwise indicated. Tumor size and body-weight were recorded every other day (Q2D) and, for humane reasons, the animals were sacrificed when tumor size reached ≧10% of body-weight. Each group, including untreated control, consisted of 3-5 animals unless otherwise indicated.
# Athymic nude mice bearing the nu/nu gene were used for all human tumor xenografts. Outbred, Swiss-background mice were obtained from Charles River Laboratories. Male mice 8 weeks or older weighing 22 g and up were used for most experiments. The drug was administered via the tail vein for 6 hr.-i.v. infusion. Each individual mouse was confined in a perforated Falcon polypropylene tube restrainer for drug administration. Tumor volume was assessed by measuring length×width×height (or width) using a caliper. The programmable Harvard PHD2000 syringe pump (Harvard Apparatus) with multi-track was used for i.v. infusion. […] All animal studies were conducted in accordance with the guidelines of the National Institutes of Health “Guide for the Care and Use of Animals” and the protocol approved by the Memorial Sloan-Kettering Cancer Center's Institutional Animal Care and Use Committee. In keeping with the policy of this committee for the humane treatment of tumor-bearing animals, mice were euthanized when tumors reached ≧10% of their total body weight.
# Human tumor cells (5×10^6) or tumor tissue (30-50 mg) were implanted s.c. flank in nu/nu mice (Charles River Laboratories, Wilmington, Mass.). When tumor grew to a specified size, treatment was started by every-other day×5 with 6 hr i.v.-infusion, unless otherwise indicated. Tumor volume was measured with calipers in three dimensions (length×width×height or width). Body-weight changes and lethality were monitored every other day.
# [7] = system: K562 chronic myelocytic leukemia xenograft; assay: Human tumor xenograft in nude mice; assay type: in vivo
# Summary of the method: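 Subcutaneous K562 xenografts (1×10^7 cells) in male athymic nu/nu mice; 6 mg/kg C-15-aza-EpoB by 6 h i.v. tail-vein infusion on days 20–30 every other day, then 30 mg/kg dEpoF likewise from day 42. Controls received Cremophor-ethanol (1:1); tumor volume measured by caliper every other day, mean mm^3±S.E.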
# [8] = system: MX-1 mammary carcinoma xenograft
# [9] = physchem
smiles,measurement,setting,value
"C/C1=C/C[C@@H](/C(C)=C/c2csc(CO)n2)OC(=O)C[C@H](O)C(C)(C)C(=O)[C@H](C)[C@@H](O)[C@@H](C)CCC1 [dEpoF, 12,13-Desoxyepothilone F]",cross-resistance (fold of resistance vs parent cell line),[1]; CCRF-CEM/Taxol vs CCRF-CEM,2.0 x
same,pIC50,"[1]; Homo sapiens, CCRF-CEM, 72 h",8.28
same,cross-resistance (fold of resistance vs parent cell line),[2]; CCRF-CEM/VBL100 vs CCRF-CEM,17.4 x
same,pIC50,"[2]; Homo sapiens, CCRF-CEM, 72 h",7.33
same,cross-resistance (fold of resistance vs parent cell line),[3]; CCRF-CEM/VM1 vs CCRF-CEM,1.8 x
same,pIC50,"[3]; Homo sapiens, CCRF-CEM, 72 h",8.31
same,pIC50,[4],7.74
same,pIC50,"[4]; Mesocricetus auratus, DC3F",7.65
same,pIC50,"[5]; Homo sapiens, NCI/ADR-RES",8.01
same,pIC50,[5],7.73
same,cross-resistance (fold of resistance vs parent cell line),[5]; MCF-7/Adr vs MCF-7,1.4 x and 1.9 x
same,tumor free mice on day 28,"[6]; CCRF-CEM, dEpoF 30 mg/kg, 6 hr-i.v. infusion Q2D×6",one of three mice was tumor free
same,Therapeutic Effect Rank Order,"[6]; CCRF-CEM, i.v. infusion, FIG. 5",dEpoF>>>15-azaEpoB
same,body-weight reduction on day 28,"[6]; CCRF-CEM-bearing nude mice, dEpoF 30 mg/kg, 15-azaEpoB 6 mg/kg Q2D×6",about 10%
same,tumor free mice on day 76,"[7]; K562, aza-EpoB 6 mg/kg then dEpoF 30 mg/kg, n=3",all three mice were tumor free
same,therapeutic effect on tumor growth,"[7]; K562, dEpoF 30 mg/kg Q2D×6 in the same mice after aza-EpoB, tumor near 500 mm^3 (FIG. 34)",readily induced reduction in the size of the tumor to the point of remission; also recorded: The tumor mass eventually disappeared three weeks later
same,Therapeutic Effect Rank Order,"[7]; K562, i.v. infusion (dEpoF vs 15-azaEpoB)",dEpoF>>>15-azaEpoB
same,therapeutic effect on tumor growth,"[8]; MX-1, dEpoF 15 mg/kg Q2D×5, 6 hr-i.v. infusion",tumor growth was partially suppressed
same,tumor disappearance (tumor free mice),"[8]; MX-1, dEpoF 30 mg/kg Q2D×5, 6 hr-i.v. infusion",three out of five
same,solubility,[9],~25 mg/mL
